In PubChem BioAssay AID192 (DTP/NCI, 2004):
Values joined by “and” are separate entries in the source; they are usually repeats but may differ in a detail not shown here. Equal values may be shown once. Toxic doses and inconclusive results are not listed.

Tested on: BDF1 mice, B16 melanoma ip, median survival T/C
Test: NCI In Vivo Anticancer Drug Screen. Data for tumor model B16 Melanoma (intraperitoneal) in B6D2F1 (BDF1) mice
Details: endpoint: median survival time, higher = longer survival
Method in brief: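 The ratio T/C compares compound-treated mice with vehicle-treated controls, using survival or tumor size as the endpoint in a transplantable tumor model.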

[1] = dose: 25.0 mg/kg/injection, schedule: Q04DX003 (ip), vehicle: saline with Tween-80
[2] = dose: 100.0 mg/kg/injection, schedule: Q01DX009 (ip), vehicle: Klucel (hydroxypropylcellulose) (HPC)
[3] = dose: 200.0 mg/kg/injection, schedule: Q01DX009 (ip), vehicle: Klucel (hydroxypropylcellulose) (HPC)
[4] = dose: 400.0 mg/kg/injection, schedule: Q01DX009 (ip), vehicle: Klucel (hydroxypropylcellulose) (HPC)
[5] = dose: 100.0 mg/kg/injection, schedule: Q01DX009 (ip), vehicle: saline with Tween-80
[6] = dose: 200.0 mg/kg/injection, schedule: Q01DX009 (ip), vehicle: saline with Tween-80
[7] = dose: 100.0 mg/kg/injection, schedule: Q04DX003 (ip), vehicle: Klucel (hydroxypropylcellulose) (HPC)
[8] = dose: 200.0 mg/kg/injection, schedule: Q04DX003 (ip), vehicle: Klucel (hydroxypropylcellulose) (HPC)
[9] = dose: 400.0 mg/kg/injection, schedule: Q04DX003 (ip), vehicle: Klucel (hydroxypropylcellulose) (HPC)
[10] = dose: 100.0 mg/kg/injection, schedule: Q01DX009 (ip), vehicle: saline
[11] = dose: 50.0 mg/kg/injection, schedule: Q01DX009 (ip), vehicle: Klucel (hydroxypropylcellulose) (HPC)
[12] = dose: 12.5 mg/kg/injection, schedule: Q01DX009 (ip), vehicle: saline with Tween-80
[13] = dose: 25.0 mg/kg/injection, schedule: Q01DX009 (ip), vehicle: Klucel (hydroxypropylcellulose) (HPC)
[14] = dose: 50.0 mg/kg/injection, schedule: Q01DX009 (ip), vehicle: saline
[15] = dose: 12.5 mg/kg/injection, schedule: Q01DX009 (ip), vehicle: Klucel (hydroxypropylcellulose) (HPC)
[16] = dose: 50.0 mg/kg/injection, schedule: Q01DX009 (ip), vehicle: saline with Tween-80
[17] = dose: 25.0 mg/kg/injection, schedule: Q01DX009 (ip), vehicle: saline with Tween-80
[18] = dose: 0.5 mg/kg/injection, schedule: Q01DX009 (ip), vehicle: saline
[19] = dose: 1.0 mg/kg/injection, schedule: Q01DX009 (ip), vehicle: saline

COc1cc([C@@H]2c3cc4c(cc3[C@H](O)[C@H]3COC(=O)[C@@H]23)OCO4)cc(OC)c1OC
T/C (dose: 6.0 mg/kg/injection, schedule: Q01DX009 (ip), vehicle: Klucel (hydroxypropylcellulose) (HPC)): 105 % of control
T/C (dose: 12.0 mg/kg/injection, schedule: Q01DX009 (ip), vehicle: Klucel (hydroxypropylcellulose) (HPC)): 113 % of control
T/C (dose: 24.0 mg/kg/injection, schedule: Q01DX009 (ip), vehicle: Klucel (hydroxypropylcellulose) (HPC)): 113 % of control

CN(C)CCCN=Cc1ccccc1O.CN(C)CCCN=Cc1ccccc1O.[Ni+2]
T/C (dose: 6.25 mg/kg/injection, schedule: Q04DX003 (ip), vehicle: saline with Tween-80): 92 % of control
T/C [1]: 86 % of control

CCOc1ccc(N=Nc2ccc(N)cc2N)cc1
T/C [2]: 101 % of control
T/C [3]: 106 % of control
T/C [4]: 108 % of control

Cc1cccc(/C=N\OCCc2ccccc2)n1
T/C [5]: 97 % of control
T/C [6]: 93 % of control

CCCCNC(=O)Nc1ccccc1CC
T/C [7]: 110 % of control
T/C [8]: 103 % of control
T/C [9]: 96 % of control

CCOC(CNC(=O)CC(C)=O)OCC
T/C [10]: 110 % of control
T/C (dose: 200.0 mg/kg/injection, schedule: Q01DX009 (ip), vehicle: saline): 118 % of control
T/C (dose: 400.0 mg/kg/injection, schedule: Q01DX009 (ip), vehicle: saline): 106 % of control

CC(=O)Nc1ccc(Cl)c(Cl)c1
T/C [11]: 116 % of control
T/C [2]: 121 % of control

Cc1ccc2ccccc2c1OC(C)C(=O)O (stereo unspecified)
T/C (dose: 25.0 mg/kg/injection, schedule: Q04DX003 (ip), vehicle: alcohol): 100 % of control
T/C (dose: 50.0 mg/kg/injection, schedule: Q01DX009 (ip), vehicle: alcohol): 112 % of control
T/C (dose: 50.0 mg/kg/injection, schedule: Q04DX003 (ip), vehicle: alcohol): 100 % of control
T/C (dose: 100.0 mg/kg/injection, schedule: Q01DX009 (ip), vehicle: alcohol): 109 % of control
T/C (dose: 100.0 mg/kg/injection, schedule: Q04DX003 (ip), vehicle: alcohol): 88 % of control

Cc1cc(Cl)ccc1NC(=O)c1ccccc1C(=O)O
T/C [2]: 96 % of control
T/C [7]: 93 % of control
T/C [3]: 100 % of control
T/C [8]: 96 % of control
T/C [9]: 106 % of control

CCC[CH2][Sn]1([CH2]CCC)[S]CC[N]1S(=O)(=O)c1ccc(C)cc1
T/C (dose: 6.0 mg/kg/injection, schedule: Q01DX009 (ip), vehicle: saline with Tween-80): 95 % of control
T/C [12]: 108 % of control

Cc1cccc(NC(=O)c2cccc(C(=O)Nc3cccc(C)c3C)c2)c1C
T/C [2]: 100 % of control
T/C [3]: 90 % of control
T/C [4]: 86 % of control

C[C@@H]1C(=O)C[C@H]2C(C)(C)CCC[C@]2(C)[C@@]1(O)CCc1ccoc1
T/C [13]: 99 % of control
T/C [11]: 89 % of control
T/C [2]: 93 % of control
T/C [3]: 86 % of control

CCOC(=O)c1c[nH]c2oc(/C=N/N3CC(CN4CCOCC4)OC3=O)cc2c1=O (stereo unspecified)
T/C (dose: 12.5 mg/kg/injection, schedule: Q01DX009 (ip), vehicle: saline): 95 % of control
T/C (dose: 25.0 mg/kg/injection, schedule: Q01DX009 (ip), vehicle: saline): 98 % of control
T/C [14]: 97 % of control
T/C [10]: 105 % of control

S=c1sc2ccccc2n1CN(c1ccccc1)c1ccc2ccccc2c1
T/C [1]: 109 % of control
T/C (dose: 50.0 mg/kg/injection, schedule: Q04DX003 (ip), vehicle: saline with Tween-80): 106 % of control
T/C (dose: 100.0 mg/kg/injection, schedule: Q04DX003 (ip), vehicle: saline with Tween-80): 93 % of control and 103 % of control

O=C(CCN1CC1)Nc1cccc(NC(=O)CCN2CC2)c1
T/C (dose: 2.5 mg/kg/injection, schedule: Q01DX009 (ip), vehicle: Klucel (hydroxypropylcellulose) (HPC)): 156 % of control
T/C (dose: 5.0 mg/kg/injection, schedule: Q01DX009 (ip), vehicle: Klucel (hydroxypropylcellulose) (HPC)): 153 % of control and 173 % of control
T/C (dose: 10.0 mg/kg/injection, schedule: Q01DX009 (ip), vehicle: Klucel (hydroxypropylcellulose) (HPC)): 211 % of control and 268 % of control

Cc1cc(=O)c2c(o1)-c1c(cc(O)c(O)c1C(=O)O)OC2
T/C [15]: 101 % of control
T/C [13]: 105 % of control
T/C [11]: 105 % of control
T/C [2]: 102 % of control
T/C [3]: 106 % of control

O=C1CCC(N2C(=O)c3ccccc3C2=O)C(=O)N1 (stereo unspecified)
T/C [13]: 100 % of control
T/C (dose: 25.0 mg/kg/injection, schedule: Q04DX003 (ip), vehicle: Klucel (hydroxypropylcellulose) (HPC)): 99 % of control
T/C [11]: 102 % of control
T/C (dose: 50.0 mg/kg/injection, schedule: Q04DX003 (ip), vehicle: Klucel (hydroxypropylcellulose) (HPC)): 106 % of control
T/C [2]: 94 % of control
T/C [7]: 94 % of control
T/C [3]: 100 % of control
T/C [8]: 99 % of control
T/C [4]: 102 % of control
T/C [9]: 94 % of control

NC(=O)NC(=O)c1cccc([N+](=O)[O-])c1
T/C [16]: 104 % of control
T/C [5]: 102 % of control
T/C [6]: 102 % of control

C=C(Cl)C(=NC(C)(C)C)Nc1ccccc1C
T/C (dose: 3.12 mg/kg/injection, schedule: Q01DX009 (ip), vehicle: Klucel (hydroxypropylcellulose) (HPC)): 99 % of control
T/C (dose: 6.25 mg/kg/injection, schedule: Q01DX009 (ip), vehicle: Klucel (hydroxypropylcellulose) (HPC)): 86 % of control
T/C [15]: 92 % of control
T/C [13]: 102 % of control

O=C(Nc1ccccc1C(F)(F)F)C(c1ccccc1)c1ccccc1
T/C [12]: 101 % of control
T/C [17]: 98 % of control
T/C [16]: 97 % of control

COc1ccc(N=C(C(=Nc2ccc(OC)cc2)c2ccccc2)c2ccccc2)cc1
T/C [7]: 102 % of control
T/C [8]: 103 % of control
T/C [9]: 101 % of control

[Cl][Pt+2][Br].[NH-]CC[NH-]
T/C (dose: 0.47 mg/kg/injection, schedule: Q04DX003 (ip), vehicle: saline with Tween-80): 110 % of control
T/C [18]: 110 % of control
T/C (dose: 0.95 mg/kg/injection, schedule: Q04DX003 (ip), vehicle: saline with Tween-80): 118 % of control
T/C [19]: 110 % of control
T/C (dose: 1.9 mg/kg/injection, schedule: Q04DX003 (ip), vehicle: saline with Tween-80): 105 % of control
T/C (dose: 2.0 mg/kg/injection, schedule: Q01DX009 (ip), vehicle: saline): 110 % of control

CC(=O)Oc1c(C)c2c(O)c3c1C1=C(OCOC1=C(C)C3=O)C(C)=CC(C)(O)C(O)C(C)C(O)C1C(=O)OC(C(C)/C=C\C=C(C)C(=O)N2)C(C)C1O (stereo unspecified)
T/C [14]: 97 % of control

CCN(CC)CCN(C)CCN(CC)CC
T/C [14]: 100 % of control
T/C [10]: 94 % of control

CNc1ccccc1Cc1ccccc1
T/C [11]: 103 % of control
T/C [2]: 90 % of control
T/C [3]: 99 % of control

COc1ccc2nc3cc(Cl)ccc3c(Nc3ccc(O)c(CN(CCCl)CCCl)c3)c2c1
T/C (dose: 0.25 mg/kg/injection, schedule: Q01DX009 (ip), vehicle: saline): 104 % of control
T/C [18]: 121 % of control
T/C [19]: 120 % of control

O=C(Nc1ccc(C(=O)Nc2cc(S(=O)(=O)O)cc3cc(S(=O)(=O)O)cc(O)c23)cc1)c1ccccc1
T/C [5]: 94 % of control
T/C [6]: 89 % of control
T/C (dose: 400.0 mg/kg/injection, schedule: Q01DX009 (ip), vehicle: saline with Tween-80): 89 % of control

Cc1cccc(NC(=O)c2ccccc2)c1C
T/C [17]: 99 % of control
T/C [16]: 99 % of control
T/C [5]: 93 % of control
